Values quoted from earlier work, collected in patent US20170326066A1, “METHOD OF TREATING HYPERTENSION” (Ezra Pharma LLC, priority 2016, published 2017).

peak plasma concentration reduced to (by 12 hours): approximately 65%
time by which plasma levels reach very low level (following Cmax): 10 to 12 h
half-life (in vivo): about 6 hours
Tmax (oral administration): 2 to 4 h
absolute bioavailability (oral administration): about 25%
absolute bioavailability (range) (oral administration): 10-35%
SMILES: CCCCC(=O)N(Cc1ccc(-c2ccccc2-c2nnn[nH]2)cc1)[C@H](C(=O)O)C(C)C [valsartan]
